In publication PMC12346769, “Activity Analysis and Inhibition Mechanism of Four Novel Angiotensin I-Converting Enzyme Inhibitory Peptides Prepared from Flammulina velutipes by Enzymatic Hydrolysis” (Foods, 2025):
Marks after values point to notes of the source that are not given here. Where a SMILES comes first, the peptide text is derived from it. Where no end group is shown, it is not given here.

Molecular target: T1, ACE (Homo sapiens, UniProt P12821)
T1 construct: purchased Shanghai Yuanye Biotechnology Co., Ltd
T1 sequence (P12821 30-1306, species assumed): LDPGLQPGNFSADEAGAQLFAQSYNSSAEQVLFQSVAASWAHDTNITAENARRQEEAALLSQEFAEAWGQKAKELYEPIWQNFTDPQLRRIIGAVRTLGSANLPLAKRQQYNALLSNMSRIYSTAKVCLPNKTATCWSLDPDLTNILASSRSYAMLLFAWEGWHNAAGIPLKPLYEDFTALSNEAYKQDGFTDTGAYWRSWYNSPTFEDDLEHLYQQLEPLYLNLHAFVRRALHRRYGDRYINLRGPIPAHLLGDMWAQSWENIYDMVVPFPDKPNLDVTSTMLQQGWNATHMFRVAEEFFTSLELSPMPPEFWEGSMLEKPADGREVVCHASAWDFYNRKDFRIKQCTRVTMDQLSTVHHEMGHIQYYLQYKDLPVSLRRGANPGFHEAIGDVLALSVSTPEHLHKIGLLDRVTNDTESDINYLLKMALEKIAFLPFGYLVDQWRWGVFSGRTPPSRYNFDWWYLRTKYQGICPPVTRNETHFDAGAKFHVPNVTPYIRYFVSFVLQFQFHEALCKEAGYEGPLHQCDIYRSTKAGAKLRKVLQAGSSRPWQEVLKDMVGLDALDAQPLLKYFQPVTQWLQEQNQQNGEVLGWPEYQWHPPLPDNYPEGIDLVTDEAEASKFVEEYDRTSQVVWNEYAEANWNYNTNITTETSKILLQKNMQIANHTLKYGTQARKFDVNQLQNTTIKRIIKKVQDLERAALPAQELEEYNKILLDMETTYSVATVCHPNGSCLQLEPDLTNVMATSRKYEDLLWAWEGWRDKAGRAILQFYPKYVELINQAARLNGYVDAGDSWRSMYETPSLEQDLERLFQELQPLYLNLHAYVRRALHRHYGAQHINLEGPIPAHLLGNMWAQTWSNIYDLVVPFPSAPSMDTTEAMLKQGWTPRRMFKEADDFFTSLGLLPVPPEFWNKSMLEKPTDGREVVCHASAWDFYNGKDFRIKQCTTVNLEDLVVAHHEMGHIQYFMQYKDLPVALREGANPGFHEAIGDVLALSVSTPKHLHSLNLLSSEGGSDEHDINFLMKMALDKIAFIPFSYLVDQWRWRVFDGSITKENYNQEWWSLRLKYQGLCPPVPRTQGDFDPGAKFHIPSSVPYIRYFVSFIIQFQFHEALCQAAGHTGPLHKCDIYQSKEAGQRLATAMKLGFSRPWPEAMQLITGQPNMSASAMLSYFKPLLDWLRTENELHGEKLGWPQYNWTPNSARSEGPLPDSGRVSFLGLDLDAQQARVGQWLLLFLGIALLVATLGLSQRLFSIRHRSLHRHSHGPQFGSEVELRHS
Experiment: ACE inhibition rate / IC50 determination with FAPGG substrate (absorbance 340 nm)
Assay type: biochemical
Details: for Inhibitory effect as % of the positive control: ACE inhibition rate relative to captopril; for IC50 / Inhibition Rate of ACE: synthesized peptides, captopril as positive control; for Inhibition Rate of ACE: test concentration not given
Procedure: The ACE inhibition rate was determined according to the method developed by Wang. In brief, 1 mmol/L FAPGG solution, 0.1 U/mL ACE solution, and F. velutipes protein solution were mixed in 80 mmol/L HEPES buffer (pH 8.2), and the mixture was added to 96-well plates according to Table 1. The absorbance value at the wavelength of 340 nm at 37 °C and the absorbance value after 30 min of reaction were measured. The calculation formula is as follows: (2) Inhibition Rate of ACE%=(1−ΔA/ΔB)×100
In the formula, ΔA = A1 − A2; ΔB = B1 − B2. ΔA was the absorbance value of the sample pore solution; ΔB was the absorbance value of the control pore solution. A1 and B1 were the absorbance values measured at the wavelength of 340 nm. A2 and B2 were the absorbance values measured at the wavelength of 340 nm after reacting for 30 min at 37 °C.
Wuhan Dangang Biotechnology Co., Ltd. (Wuhan, China) was commissioned to synthesize the peptides. […] With captopril as the positive control, the ACE inhibition rate and IC50 of the above synthetic peptides were determined according to the method of Section 2.5.

FHPGY [FHPGY]
Inhibitory effect as % of the positive control: 92.60%
IC50: 14.8 ± 0.34 µM
Inhibition Rate of ACE: 91.41 ± 1.01 ^b %

N[C@@H](Cc1ccccc1)C(=O)N[C@@H](CC(=O)O)C(=O)NCC(=O)N[C@@H](Cc1ccc(O)cc1)C(=O)O [FDGY] (H-FDGY-OH; N-terminus and C-terminus assumed)
Inhibitory effect as % of the positive control: 81.53%
IC50: 91.5 ± 1.09 µM
Inhibition Rate of ACE: 80.48 ± 0.84 ^e %

FAGGP [FAGGP]
Inhibitory effect as % of the positive control: 87.04%
IC50: 29.2 ± 1.37 µM
Inhibition Rate of ACE: 85.92 ± 1.81 ^c %

C[C@H](NC(=O)[C@@H](N)Cc1c[nH]c2ccccc12)C(=O)N[C@@H](CC(=O)O)C(=O)N1CCC[C@H]1C(=O)O [WADP] (H-WADP-OH; N-terminus and C-terminus assumed)
Inhibitory effect as % of the positive control: 84.13%
IC50: 41.3 ± 0.7 µM
Inhibition Rate of ACE: 83.04 ± 0.68 ^d %
